Earlier results, collected in patent US20230045688A1 (priority 2020, published 2023).

Test system: SARS-CoV
Details: disruption of oligosaccharide formation; Vincent et al. 2005; Savarino et al. 2006

## CCN(CC)CCCC(C)Nc1ccnc2cc(Cl)ccc12 (stereo not shown) [chloroquine]
  SARS-CoV infectivity: significantly decreases SARS-CoV infectivity
